Assay results as given in patent US11331327B2, “Antibacterial use of halogenated salicylanilides” (UNION therapeutics A/S, priority 2014, dated 2022).

Test system: S. aureus clinical isolates and S. aureus ATCC 29213
Assay: MIC assay according to CLSI criteria, Example 2, S. aureus strains
Assay type: cell-based, Staphylococcus aureus
Conditions: Staphylococcus aureus
Procedure, shortened: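 Wells received roughly 5×10^5 S. aureus cells taken in exponential growth, in cation-adjusted MH broth. Plates held aerobically at 37° C for 18 hours.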

Measured: MIC

C=C[C@]1(C)C[C@@H](OC(=O)CS[C@@H]2C[C@H]3CC[C@@H](C2)N3C)[C@]2(C)[C@H](C)CC[C@]3(CCC(=O)[C@H]32)[C@@H](C)[C@@H]1O [Retapamulin]
0.125 µg/mL: ATCC 29213 / MRSA, strain MRSA 21
1 µg/mL: ATCC 29213 / MRSA, strain MRSA 100
< 0.01 µg/mL: ATCC 29213 / MRSA, strain MRSA 56 | ATCC 29213 / MRSA, strain MRSA 69 | ATCC 29213 / MRSA, strain MRSA 71 | ATCC 29213 / MRSA, strain MRSA 79
0.03 µg/mL: ATCC 29213 / MRSA, strain MRSA 17 | ATCC 29213 / MRSA, strain MRSA 19 | ATCC 29213 / MRSA, strain MRSA 28 | ATCC 29213 / MRSA, strain MRSA 30 | ATCC 29213 / MRSA, strain MRSA 35 | ATCC 29213 / MRSA, strain MRSA 40 | ATCC 29213 / MRSA, strain MRSA 51 | ATCC 29213 / MRSA, strain MRSA 53 | ATCC 29213 / MRSA, strain MRSA 54 | ATCC 29213 / MRSA, strain MRSA 72 | ATCC 29213 / MRSA, strain MRSA 73 | ATCC 29213 / MRSA, strain MRSA 74 | ATCC 29213 / MRSA, strain MRSA 75 | ATCC 29213 / MRSA, strain MRSA 76 | ATCC 29213 / MRSA, strain MRSA 77 | ATCC 29213 / MRSA, strain MRSA 78 | ATCC 29213 / MRSA, strain MRSA 81 | ATCC 29213 / MRSA, strain MRSA 82 | ATCC 29213 / MRSA, strain MRSA 83 | ATCC 29213 / MRSA, strain MRSA 84 | ATCC 29213 / MRSA, strain MRSA 85 | ATCC 29213 / MRSA, strain MRSA 86 | ATCC 29213 / MRSA, strain MRSA 88 | ATCC 29213 / MRSA, strain MRSA 94 | ATCC 29213 / MRSA, strain MRSA 95 | ATCC 29213 / MRSA, strain MRSA 96 | ATCC 29213 / MRSA, strain MRSA 97 | ATCC 29213 / MRSA, strain MRSA 98 | ATCC 29213 / MRSA, strain MRSA 99 | ATCC 29213 / MRSA, strain MRSA 101 | ATCC 29213 / MRSA, strain MRSA 102 | ATCC 29213 / MRSA, strain MRSA 103 | ATCC 29213 / MRSA, strain MRSA 104 | ATCC 29213 / MRSA, strain MRSA 105 | ATCC 29213 / MRSA, strain MRSA 108 | ATCC 29213 / MRSA, strain MRSA 109 | ATCC 29213 / MRSA, strain MRSA 110 | ATCC 29213 / MRSA, strain MRSA 111 | ATCC 29213 / MRSA, strain MRSA 112 | ATCC 29213 / MRSA, strain MRSA 113 | ATCC 29213 / MSSA, strain MSSA 01 | ATCC 29213 / MSSA, strain MSSA 02 | ATCC 29213 / NEWMAN, strain Newman
16 µg/mL: ATCC 29213 / MRSA, strain MRSA 31
0.02 µg/mL: ATCC 29213 / MRSA, strain MRSA 27b | ATCC 29213 / MRSA, strain MRSA 41 | ATCC 29213 / MRSA, strain MRSA 44 | ATCC 29213 / MRSA, strain MRSA 45 | ATCC 29213 / MRSA, strain MRSA 46 | ATCC 29213 / MRSA, strain MRSA 47 | ATCC 29213 / MRSA, strain MRSA 48 | ATCC 29213 / MRSA, strain MRSA 49 | ATCC 29213 / MRSA, strain MRSA 50 | ATCC 29213 / MRSA, strain MRSA 52 | ATCC 29213 / MRSA, strain MRSA 55 | ATCC 29213 / MRSA, strain MRSA 57 | ATCC 29213 / MRSA, strain MRSA 58 | ATCC 29213 / MRSA, strain MRSA 59 | ATCC 29213 / MRSA, strain MRSA 60 | ATCC 29213 / MRSA, strain MRSA 61 | ATCC 29213 / MRSA, strain MRSA 62 | ATCC 29213 / MRSA, strain MRSA 63 | ATCC 29213 / MRSA, strain MRSA 64 | ATCC 29213 / MRSA, strain MRSA 65 | ATCC 29213 / MRSA, strain MRSA 66 | ATCC 29213 / MRSA, strain MRSA 67 | ATCC 29213 / MRSA, strain MRSA 68 | ATCC 29213 / MRSA, strain MRSA 70 | ATCC 29213 / MRSA, strain MRSA 80 | ATCC 29213 / MRSA, strain MRSA 87 | ATCC 29213 / MRSA, strain MRSA 89 | ATCC 29213 / MRSA, strain MRSA 93
0.06 µg/mL: ATCC 29213 / MRSA, strain MRSA 15 | ATCC 29213 / MRSA, strain MRSA 16 | ATCC 29213 / MRSA, strain MRSA 18 | ATCC 29213 / MRSA, strain MRSA 20 | ATCC 29213 / MRSA, strain MRSA 22 | ATCC 29213 / MRSA, strain MRSA 23 | ATCC 29213 / MRSA, strain MRSA 24 | ATCC 29213 / MRSA, strain MRSA 25 | ATCC 29213 / MRSA, strain MRSA 26 | ATCC 29213 / MRSA, strain MRSA 27 | ATCC 29213 / MRSA, strain MRSA 29 | ATCC 29213 / MRSA, strain MRSA 32 | ATCC 29213 / MRSA, strain MRSA 33 | ATCC 29213 / MRSA, strain MRSA 34 | ATCC 29213 / MRSA, strain MRSA 36 | ATCC 29213 / MRSA, strain MRSA 37 | ATCC 29213 / MRSA, strain MRSA 38 | ATCC 29213 / MRSA, strain MRSA 39 | ATCC 29213 / MRSA, strain MRSA 42 | ATCC 29213 / MRSA, strain MRSA 43 | ATCC 29213 / MRSA, strain MRSA 90 | ATCC 29213 / MRSA, strain MRSA 91 | ATCC 29213 / MRSA, strain MRSA 92 | ATCC 29213 / MRSA, strain MRSA 106 | ATCC 29213 / MRSA, strain MRSA 107
